The CheMixHub ionic liquid set

Test: xn = mol fraction of the nth substance listed

CN1CCN(C)C1=O + CCCCCCCCn1cc[n+](C)c1.[Cl-]
100 kPa
Conditions	viscosity [mPa·s]
288.15 K, x2 = 0.3018	87.7
288.15 K, x2 = 0.4964	614
293.15 K, x2 = 0.3991	158.4
303.15 K, x2 = 0.2056	16.57
303.15 K, x2 = 0.4964	230
308.15 K, x2 = 0.7994	1104
313.15 K, x2 = 0.4964	129.8
313.15 K, x2 = 0.7994	774
318.15 K, x2 = 0.4964	100.2
323.15 K, x2 = 0.4964	79.4
328.15 K, x2 = 0.105	3.05
328.15 K, x2 = 0.3991	31.3
333.15 K, x2 = 0.7007	148

CS(=O)(=O)[O-].C[N+](C)(CCO)CCO + CC(C)O
viscosity [mPa·s], 101 kPa
Conditions	x1 = 0.0998	x1 = 0.2001	x1 = 0.3002	x1 = 0.4004	x1 = 0.4982	x1 = 0.5999	x1 = 0.6997	x1 = 0.7978	x1 = 0.8994	x1 = 1
298.15 K	5.62	13.5	30.1	61	123	227	385	628	1025	1495
303.15 K	4.78	11.45	24.1	47.7	86.7	168	281	445	712	1021
308.15 K	4.13	9.67	19.7	38	67.4	128.7	210	324	507	716
313.15 K	3.6	8.13	16.3	30.7	53.4	89.6	159	243	370	513
318.15 K	3.36	6.96	13.7	25.2	43	70.7	123.6	186	278	378
323.15 K	2.83	6.02	11.86	21	35.1	56.7	87	143.8	211	282

O=S(=O)([N-]S(=O)(=O)C(F)(F)F)C(F)(F)F.[Li+] + CC[n+]1ccn(C)c1.O=S(=O)([O-])C(F)(F)F + O
Conditions	electrical conductivity [S/m]	viscosity [mPa·s]
283 K, 101 kPa, x1 = 0.2649, x2 = 0.2649	0.36	96.6
283 K, 101 kPa, x1 = 0.4189, x2 = 0.2649	0.056	–
283 K, 101 kPa, x1 = 0.5195, x2 = 0.3509	0.014	–
293 K, 101 kPa, x1 = 0.2649, x2 = 0.2649	0.54	60.2
293 K, 101 kPa, x1 = 0.4189, x2 = 0.2649	0.1	410
293 K, 101 kPa, x1 = 0.5195, x2 = 0.3509	0.03	–
293.15 K, 100 kPa, x1 = 0.2745, x2 = 0.3509	–	69.3
293.15 K, 100 kPa, x1 = 0.3106, x2 = 0.3509	–	87
293.15 K, 100 kPa, x1 = 0.3509, x2 = 0.3509	–	129
293.15 K, 100 kPa, x1 = 0.3868, x2 = 0.3509	–	190
293.15 K, 100 kPa, x1 = 0.4189, x2 = 0.3509	–	292
293.15 K, 100 kPa, x1 = 0.4478, x2 = 0.3509	–	428
293.15 K, 100 kPa, x1 = 0.474, x2 = 0.3509	–	611
293.15 K, 100 kPa, x1 = 0.4978, x2 = 0.3509	–	880
293.15 K, 100 kPa, x1 = 0.5195, x2 = 0.3509	–	1587
298.1 K, 101 kPa, x1 = 0.2649, x2 = 0.2649	0.65	48.9
298.1 K, 101 kPa, x1 = 0.4189, x2 = 0.2649	0.14	302
298.1 K, 101 kPa, x1 = 0.5195, x2 = 0.3509	0.042	1125
298.15 K, 100 kPa, x1 = 0.2745, x2 = 0.3509	–	55
298.15 K, 100 kPa, x1 = 0.3106, x2 = 0.3509	–	73.5
298.15 K, 100 kPa, x1 = 0.3509, x2 = 0.3509	–	102
298.15 K, 100 kPa, x1 = 0.3868, x2 = 0.3509	–	147
298.15 K, 100 kPa, x1 = 0.4189, x2 = 0.3509	–	219
298.15 K, 100 kPa, x1 = 0.4478, x2 = 0.3509	–	316
298.15 K, 100 kPa, x1 = 0.474, x2 = 0.3509	–	439
298.15 K, 100 kPa, x1 = 0.4978, x2 = 0.3509	–	618
298.15 K, 100 kPa, x1 = 0.5195, x2 = 0.3509	–	1082
303 K, 101 kPa, x1 = 0.2649, x2 = 0.2649	0.77	40.2
303 K, 101 kPa, x1 = 0.4189, x2 = 0.2649	0.17	227
303 K, 101 kPa, x1 = 0.5195, x2 = 0.3509	0.057	789
303.15 K, 100 kPa, x1 = 0.2745, x2 = 0.3509	–	44.4
303.15 K, 100 kPa, x1 = 0.3106, x2 = 0.3509	–	59.3
303.15 K, 100 kPa, x1 = 0.3509, x2 = 0.3509	–	81.4
303.15 K, 100 kPa, x1 = 0.3868, x2 = 0.3509	–	115
303.15 K, 100 kPa, x1 = 0.4189, x2 = 0.3509	–	166
303.15 K, 100 kPa, x1 = 0.4478, x2 = 0.3509	–	238
303.15 K, 100 kPa, x1 = 0.474, x2 = 0.3509	–	326
303.15 K, 100 kPa, x1 = 0.4978, x2 = 0.3509	–	452
303.15 K, 100 kPa, x1 = 0.5195, x2 = 0.3509	–	770
313 K, 101 kPa, x1 = 0.2649, x2 = 0.2649	1.05	28
313 K, 101 kPa, x1 = 0.4189, x2 = 0.2649	0.27	138
313 K, 101 kPa, x1 = 0.5195, x2 = 0.3509	0.1	418
313.15 K, 100 kPa, x1 = 0.2745, x2 = 0.3509	–	30.6
313.15 K, 100 kPa, x1 = 0.3106, x2 = 0.3509	–	40.1
313.15 K, 100 kPa, x1 = 0.3509, x2 = 0.3509	–	54.2
313.15 K, 100 kPa, x1 = 0.3868, x2 = 0.3509	–	75.3
313.15 K, 100 kPa, x1 = 0.4189, x2 = 0.3509	–	104
313.15 K, 100 kPa, x1 = 0.4478, x2 = 0.3509	–	144
313.15 K, 100 kPa, x1 = 0.474, x2 = 0.3509	–	191
313.15 K, 100 kPa, x1 = 0.4978, x2 = 0.3509	–	255
313.15 K, 100 kPa, x1 = 0.5195, x2 = 0.3509	–	413
323 K, 101 kPa, x1 = 0.2649, x2 = 0.2649	1.38	20.4
323 K, 101 kPa, x1 = 0.4189, x2 = 0.2649	0.4	87.4
323 K, 101 kPa, x1 = 0.5195, x2 = 0.3509	0.16	243
323.15 K, 100 kPa, x1 = 0.2745, x2 = 0.3509	–	22.1
323.15 K, 100 kPa, x1 = 0.3106, x2 = 0.3509	–	28.7
323.15 K, 100 kPa, x1 = 0.3509, x2 = 0.3509	–	37.6
323.15 K, 100 kPa, x1 = 0.3868, x2 = 0.3509	–	49.3
323.15 K, 100 kPa, x1 = 0.4189, x2 = 0.3509	–	63.9
323.15 K, 100 kPa, x1 = 0.4478, x2 = 0.3509	–	92.9
323.15 K, 100 kPa, x1 = 0.474, x2 = 0.3509	–	120
323.15 K, 100 kPa, x1 = 0.4978, x2 = 0.3509	–	155
323.15 K, 100 kPa, x1 = 0.5195, x2 = 0.3509	–	239
333 K, 101 kPa, x1 = 0.2649, x2 = 0.2649	1.76	15.3
333 K, 101 kPa, x1 = 0.4189, x2 = 0.2649	0.56	58
333 K, 101 kPa, x1 = 0.5195, x2 = 0.3509	0.24	149
333.15 K, 100 kPa, x1 = 0.2745, x2 = 0.3509	–	16.5
333.15 K, 100 kPa, x1 = 0.3106, x2 = 0.3509	–	21.2
333.15 K, 100 kPa, x1 = 0.3509, x2 = 0.3509	–	27.2
333.15 K, 100 kPa, x1 = 0.3868, x2 = 0.3509	–	34.1
333.15 K, 100 kPa, x1 = 0.4189, x2 = 0.3509	–	44
333.15 K, 100 kPa, x1 = 0.4478, x2 = 0.3509	–	56.7
333.15 K, 100 kPa, x1 = 0.474, x2 = 0.3509	–	80
333.15 K, 100 kPa, x1 = 0.4978, x2 = 0.3509	–	102
333.15 K, 100 kPa, x1 = 0.5195, x2 = 0.3509	–	150
343.15 K, 100 kPa, x1 = 0.2745, x2 = 0.3509	–	12.7
343.15 K, 100 kPa, x1 = 0.3106, x2 = 0.3509	–	16.1
343.15 K, 100 kPa, x1 = 0.3509, x2 = 0.3509	–	19.6
343.15 K, 100 kPa, x1 = 0.3868, x2 = 0.3509	–	25.1
343.15 K, 100 kPa, x1 = 0.4189, x2 = 0.3509	–	31.6
343.15 K, 100 kPa, x1 = 0.4478, x2 = 0.3509	–	39.9
343.15 K, 100 kPa, x1 = 0.474, x2 = 0.3509	–	51.1
343.15 K, 100 kPa, x1 = 0.4978, x2 = 0.3509	–	64.1
343.15 K, 100 kPa, x1 = 0.5195, x2 = 0.3509	–	91.5
353.15 K, 100 kPa, x1 = 0.2745, x2 = 0.3509	–	10
353.15 K, 100 kPa, x1 = 0.3106, x2 = 0.3509	–	12.6
353.15 K, 100 kPa, x1 = 0.3509, x2 = 0.3509	–	15.1
353.15 K, 100 kPa, x1 = 0.3868, x2 = 0.3509	–	19
353.15 K, 100 kPa, x1 = 0.4189, x2 = 0.3509	–	23.6
353.15 K, 100 kPa, x1 = 0.4478, x2 = 0.3509	–	29.2
353.15 K, 100 kPa, x1 = 0.474, x2 = 0.3509	–	36.7
353.15 K, 100 kPa, x1 = 0.4978, x2 = 0.3509	–	45.9
353.15 K, 100 kPa, x1 = 0.5195, x2 = 0.3509	–	58
363.15 K, 100 kPa, x1 = 0.2745, x2 = 0.3509	–	7.98
363.15 K, 100 kPa, x1 = 0.3106, x2 = 0.3509	–	10
363.15 K, 100 kPa, x1 = 0.3509, x2 = 0.3509	–	11.9
363.15 K, 100 kPa, x1 = 0.3868, x2 = 0.3509	–	14.8
363.15 K, 100 kPa, x1 = 0.4189, x2 = 0.3509	–	18.1
363.15 K, 100 kPa, x1 = 0.4478, x2 = 0.3509	–	22.1
363.15 K, 100 kPa, x1 = 0.474, x2 = 0.3509	–	27.3
363.15 K, 100 kPa, x1 = 0.4978, x2 = 0.3509	–	33.8
363.15 K, 100 kPa, x1 = 0.5195, x2 = 0.3509	–	41.6
